{"source": "patent US20050159460A1", "about": "“Peptide isosteres containing a heterocycle useful in the treatment of alzheimer's disease” (Elan Pharmaceuticals, priority 2001, published 2005)", "data": [{"compound": "CC(C)(C)OC(=O)[C@@H](C(N)c1ccccc1)[C@@H](O)C[C@@H](Cc1ccccc1)c1ncc2n1C(O)C(C)(C)C2=O", "note": "(stereo partly drawn) [Example 31, 3-[(1R,3S,4S)-1-benzyl-4-t-butoxycarbonyl-amino-3-hydroxy-5-phenylpentyl]-6,6-dimethyl-5-hydroxy-pyrrolo-[1,2-c]-imidazol-7-one]", "values": [{"measurement": "melting point", "result": "88 to 90", "unit": "°C"}]}]}
